What was measured:
[1] = molecular target: GDP-bound HRAS wild-type protein (Homo sapiens, UniProt P01112); assay: Binding to HRAS by surface plasmon resonance (SPR), Single Cycle Kinetics; conditions: KD ratio HRAS/KRAS, class symbols
[2] = molecular target: GDP-bound NRAS wild-type protein (Homo sapiens, UniProt P01111); assay: Binding to NRAS by surface plasmon resonance (SPR), Single Cycle Kinetics; conditions: KD ratio NRAS/KRAS, class symbols
Chain of GDP-bound NRAS wild-type protein (P01111 whole entry): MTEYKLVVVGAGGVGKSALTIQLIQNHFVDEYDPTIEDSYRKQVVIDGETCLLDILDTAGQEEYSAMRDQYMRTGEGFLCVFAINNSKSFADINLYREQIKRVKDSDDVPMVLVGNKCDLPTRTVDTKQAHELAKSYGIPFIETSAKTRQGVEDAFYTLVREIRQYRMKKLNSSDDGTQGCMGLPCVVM

Chain of GDP-bound HRAS wild-type protein (P01112 whole entry): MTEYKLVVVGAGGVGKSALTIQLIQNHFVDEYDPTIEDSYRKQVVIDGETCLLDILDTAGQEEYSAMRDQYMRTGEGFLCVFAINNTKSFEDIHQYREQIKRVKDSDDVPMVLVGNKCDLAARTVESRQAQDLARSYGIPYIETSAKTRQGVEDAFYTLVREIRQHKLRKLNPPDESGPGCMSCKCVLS

Row | SMILES | HRAS/KRAS (ratio of KD value with respect to GDP-bound HRAS wild-type protein to KD value with respect to KRAS) [1] | NRAS/KRAS (ratio of KD value with respect to GDP-bound NRAS wild-type protein to KD value with respect to KRAS) [2]
1 | CCOC[C@H]1C(=O)N[C@@H]([C@@H](C)CC)C(=O)N(C2CC2)CC(=O)N(C)[C@H]2C/C=C\CCN(C2=O)[C@@H](Cc2ccc(C)cc2)C(=O)N(C)CC(=O)N[C@@H](CCc2ccc(Cl)c(Cl)c2)C(=O)N2C[C@H](OCC)C[C@H]2C(=O)NC2(CC(C)(C)C2)C(=O)N(C)[C@@H](CC2CCC2)C(=O)N(C)[C@H](C(=O)N(C)C)CC(=O)N1C [PP2762] | A (a compound having 10 or more and less than 20 is denoted as A) | A (a compound having 10 or more and less than 20 is denoted as A)
2 | CCOC[C@H]1C(=O)N[C@@H]([C@@H](C)CC)C(=O)N(C)CC(=O)N(C)[C@H]2C/C=C\CCN(C2=O)[C@@H](Cc2ccc(C(F)(F)F)cc2)C(=O)N(C)CC(=O)N[C@@H](CCc2cc(F)c(C(F)(F)F)c(F)c2)C(=O)N2C[C@H](OCC)C[C@H]2C(=O)NC2(CC(C)(C)C2)C(=O)N(C)[C@@H](CC2CCC2)C(=O)N(C)[C@H](C(=O)N(C)C)CC(=O)N1C [PP2763] | A (a compound having 10 or more and less than 20 is denoted as A) | A (a compound having 10 or more and less than 20 is denoted as A)
3 | CCC[C@H]1C(=O)N[C@@H]([C@@H](C)CC)C(=O)N(C)CC(=O)N(C)[C@H]2C/C=C\CCN(C2=O)[C@@H](Cc2ccc(C(F)(F)F)cc2)C(=O)N(C)CC(=O)N[C@@H](CCc2ccc(C(F)(F)F)c(OC)c2)C(=O)N2C[C@H](OCC)C[C@H]2C(=O)NC2(CC(C)(C)C2)C(=O)N(C)[C@@H](CC2CCC2)C(=O)N(C)[C@H](C(=O)N(C)C)CC(=O)N1C [PP2764] | A (a compound having 10 or more and less than 20 is denoted as A) | A (a compound having 10 or more and less than 20 is denoted as A)
4 | CCOC[C@H]1C(=O)N[C@@H]([C@@H](C)CC)C(=O)N(C)CC(=O)N(C)[C@H]2C/C=C\CCN(C2=O)[C@@H](Cc2ccc(C(F)(F)F)cc2)C(=O)N(C)CC(=O)N[C@@H](CCc2ccc(C(F)(F)F)c(OC)c2)C(=O)N2C[C@H](OCC)C[C@H]2C(=O)NC2(CC(C)(C)C2)C(=O)N(C)[C@@H](CC2CCC2)C(=O)N(C)[C@H](C(=O)N(C)C)CC(=O)N1C [PP2765] | A (a compound having 10 or more and less than 20 is denoted as A) | A (a compound having 10 or more and less than 20 is denoted as A)
5 | CCC[C@H]1C(=O)N[C@@H]([C@@H](C)CC)C(=O)N(C)CC(=O)N(C)[C@H]2C/C=C\CCN(C2=O)[C@@H](Cc2ccc(C(F)(F)F)cc2)C(=O)N(C)CC(=O)N[C@@H](CCc2ccc(Cl)c(Cl)c2)C(=O)N2C[C@H](OCC)C[C@H]2C(=O)NC2(CC(C)(C)C2)C(=O)N(C)[C@@H](CC2CCC2)C(=O)N(C)[C@H](C(=O)N(C)C)CC(=O)N1C [PP2766] | A (a compound having 10 or more and less than 20 is denoted as A) | A (a compound having 10 or more and less than 20 is denoted as A)
6 | CCOC[C@H]1C(=O)N[C@@H]([C@@H](C)CC)C(=O)N(C)CC(=O)N(C)[C@H]2C/C=C\CCN(C2=O)[C@@H](Cc2ccc(C(F)(F)F)cc2)C(=O)N(C)CC(=O)N[C@@H](CCc2ccc(Cl)c(Cl)c2)C(=O)N2C[C@H](OCC)C[C@H]2C(=O)NC2(CC(C)(C)C2)C(=O)N(C)[C@@H](CC2CCC2)C(=O)N(C)[C@H](C(=O)N(C)C)CC(=O)N1C [PP2767] | A (a compound having 10 or more and less than 20 is denoted as A) | A (a compound having 10 or more and less than 20 is denoted as A)
7 | CCC[C@H]1C(=O)N[C@@H]([C@@H](C)CC)C(=O)N(C2CC2)CC(=O)N(C)[C@H]2C/C=C\CCN(C2=O)[C@@H](Cc2ccc(C(F)(F)F)cc2)C(=O)N(C)CC(=O)N[C@@H](CCc2cc(F)c(C(F)(F)F)c(F)c2)C(=O)N2C[C@H](OCC)C[C@H]2C(=O)NC2(CC(C)(C)C2)C(=O)N(C)[C@@H](CC2CCC2)C(=O)N(C)[C@H](C(=O)N(C)C)CC(=O)N1C [PP2768] | A (a compound having 10 or more and less than 20 is denoted as A) | A (a compound having 10 or more and less than 20 is denoted as A)
8 | CCO[C@@H]1C[C@H]2C(=O)NC3(CC(C)(C)C3)C(=O)N(C)[C@@H](CC3CCC3)C(=O)N(C)[C@H](C(=O)N(C)C)CC(=O)N(C)[C@@H](COC)C(=O)N[C@@H]([C@@H](C)CC)C(=O)N(C3CC3)CC(=O)N(C)[C@H]3C/C=C\CCN(C3=O)[C@@H](Cc3ccc(C(F)(F)F)cc3)C(=O)N(C)CC(=O)N[C@@H](CCc3cc(F)c(C(F)(F)F)c(F)c3)C(=O)N2C1 [PP2769] | A (a compound having 10 or more and less than 20 is denoted as A) | AA (a compound having 20 or more is denoted as AA)
9 | CCC[C@H]1C(=O)N[C@@H]([C@@H](C)CC)C(=O)N(C2CC2)CC(=O)N(C)[C@H]2C/C=C\CCN(C2=O)[C@@H](Cc2ccc(C(F)(F)F)cc2)C(=O)N(C)CC(=O)N[C@@H](CCc2ccc(C(F)(F)F)c(OC)c2)C(=O)N2C[C@H](OCC)C[C@H]2C(=O)NC2(CC(C)(C)C2)C(=O)N(C)[C@@H](CC2CCC2)C(=O)N(C)[C@H](C(=O)N(C)C)CC(=O)N1C [PP2770] | A (a compound having 10 or more and less than 20 is denoted as A) | A (a compound having 10 or more and less than 20 is denoted as A)
10 | CCO[C@@H]1C[C@H]2C(=O)NC3(CC(C)(C)C3)C(=O)N(C)[C@@H](CC3CCC3)C(=O)N(C)[C@H](C(=O)N(C)C)CC(=O)N(C)[C@@H](COC)C(=O)N[C@@H]([C@@H](C)CC)C(=O)N(C3CC3)CC(=O)N(C)[C@H]3C/C=C\CCN(C3=O)[C@@H](Cc3ccc(C(F)(F)F)cc3)C(=O)N(C)CC(=O)N[C@@H](CCc3ccc(C(F)(F)F)c(OC)c3)C(=O)N2C1 [PP2771] | A (a compound having 10 or more and less than 20 is denoted as A) | AA (a compound having 20 or more is denoted as AA)
11 | CCO[C@@H]1C[C@H]2C(=O)NC3(CCC3)C(=O)N(C)[C@@H](CC(C)(C)C)C(=O)N(C)[C@H](C(=O)N3CCCC3)CC(=O)N(C)[C@@H](CC)C(=O)N[C@@H]([C@@H](C)CC)C(=O)N(C)CC(=O)N(C)[C@H]3C/C=C\CCN(C3=O)[C@@H](CC3CCCCC3)C(=O)N(C)CC(=O)N[C@@H](CCc3cc(F)c(C(F)(F)F)c(F)c3)C(=O)N2C1 [PP2772] | B (a compound having 3 or more and less than 10 is denoted as B) | B (a compound having 3 or more and less than 10 is denoted as B)
12 | CCO[C@@H]1C[C@H]2C(=O)NC3(CC(C)(C)C3)C(=O)N(C)[C@@H](CC(C)(C)C)C(=O)N(C)[C@H](C(=O)N(C)C)CC(=O)N(C)[C@@H](C(C)C)C(=O)N[C@@H]([C@@H](C)CC)C(=O)N(C)CC(=O)N(C)[C@H]3C/C=C\CCN(C3=O)[C@@H](Cc3ccc(C(F)(F)F)cc3)C(=O)N(C)CC(=O)N[C@@H](CCc3ccc(C(F)(F)F)c(OC)c3)C(=O)N2C1 [PP2773] | B (a compound having 3 or more and less than 10 is denoted as B) | B (a compound having 3 or more and less than 10 is denoted as B)
13 | CCC[C@H]1C(=O)N[C@@H]([C@@H](C)CC)C(=O)N(C)CC(=O)N(C)[C@H]2C/C=C\CCN(C2=O)[C@@H](Cc2ccc(C(F)(F)F)cc2)C(=O)N(C)CC(=O)N[C@@H](CCc2ccc(CC)c(Cl)c2)C(=O)N2C[C@H](OCC)C[C@H]2C(=O)NC2(CC(C)(C)C2)C(=O)N(C)[C@@H](C(CC)CC)C(=O)N(C)[C@H](C(=O)N(C)C)CC(=O)N1C [PP2777] | A (a compound having 10 or more and less than 20 is denoted as A) | AA (a compound having 20 or more is denoted as AA)
14 | CCC[C@H]1C(=O)N[C@@H]([C@@H](C)CC)C(=O)N(C)CC(=O)N(C)[C@H]2C/C=C\CCN(C2=O)[C@@H](Cc2ccc(C)cc2)C(=O)N(C)CC(=O)N[C@@H](CCc2ccc(CC)c(Cl)c2)C(=O)N2C[C@H](OCC)C[C@H]2C(=O)NC2(CC(C)(C)C2)C(=O)N(C)[C@@H](C2CCCC2)C(=O)N(C)[C@H](C(=O)N(C)C)CC(=O)N1C [PP2778] | A (a compound having 10 or more and less than 20 is denoted as A) | A (a compound having 10 or more and less than 20 is denoted as A)
15 | CCC[C@H]1C(=O)N[C@@H]([C@@H](C)CC)C(=O)N(C)CC(=O)N(C)[C@H]2C/C=C\CCN(C2=O)[C@@H](Cc2ccc(C)cc2)C(=O)N(C)CC(=O)N[C@@H](CCc2ccc(CC)c(Cl)c2)C(=O)N2C[C@H](OCC)C[C@H]2C(=O)NC2(CC(C)(C)C2)C(=O)N(C)[C@@H](C(CC)CC)C(=O)N(C)[C@H](C(=O)N(C)C)CC(=O)N1C [PP2779] | A (a compound having 10 or more and less than 20 is denoted as A) | A (a compound having 10 or more and less than 20 is denoted as A)
